Counter-ions that a name gives are not always drawn. Like-named read-outs stand apart in the source and are kept apart here.
Experiments:
[1] = system: isolated right ventricular trabecule of dog heart; test: Extracellular electrophysiological measurements: impulse conduction time and effective refractory period; set-up: species or system mongrel dogs; conditions: for activation at 10 µM / activation at 2 µM: Canis lupus familiaris; for effect on impulse conduction (in words) / effect on effective refractory period (in words): concentrations of Table 1
Experimental: Right ventricular trabecules were prepared from the heart of mongrel dogs (weighing 5 to 10 kg each). The surviving heart pieces were placed into an organ bath (37° C.) containing modified Tyrode's nutrient medium and excited by point stimulation with a basal frequency of 1 Hz. Extracellular bipolar platinum electrodes were placed on the surface of the preparations, by means of which the propagation of the superficial potentials were registered; thus, the determination of the time of impulse conduction or the rate of impulse conduction, respectively, and the effective refractory period (ERP) became possible. During our experiments,the frequency of stimulation was temporarily varied from 0.5 Hz up to 3 Hz. The tested compounds were directly added to the organ bath after dilution of the stock solution according to the desired final concentration.

[2] = system: right ventricular papillary muscle of dogs; test: Intracellular microelectrode technique: action potential parameters, ventricular papillary muscle; set-up: species or system mongrel dogs; conditions: for Trecovery (recovery time constant of Vmax): Gy: kinetics of rapid restoration; for effect on duration of the action potential (in words) / effect on Vmax (in words): concentrations of Table 2; for effect on Vmax (in words): rapid recovery kinetics
Experimental: The method used is essentially in agreement with the method of Papp et al. [J. Cardiovascular Pharmacol. Ther. 1, 287-296 (1996)].
Right ventricular papillary muscle and Purkinje's fibres were prepared from the hearts of mongrel dogs (weighing 5 to 10 kg each). The preparations were placed into an organ bath (37° C.) containing modified Tyrode's nutrient medium. The preparations were excited by a basal frequency of 1 Hz. During the experiments, the frequency of stimulation was varied under broad limits by a computer-guided stimulator. The intracellular action potentials were registered by using glass capillary microelectrodes filled with 3 N potassium chloride solution (standard intracellular microelectrode techniques). The resting potential (RP), the amplitude of the action potential (APA) as well as the duration of the action potential (APD) were measured by using an IBM 386 compatible computer by means of an own-developed software. The compounds under test were directly added into the organ bath after dilution of the stock solutions according to the final concentrations desired. The effects of the compounds were observed after an incubation time of 30 to 40 minutes.

[3] = 10 μM, 1 Hz, read-out: Prolongation (%) of ERP
[4] = 10 μM, 1 Hz, read-out: Prolongation (%) of impulse conduction time
[5] = 10 μM, 3 Hz, read-out: Prolongation (%) of ERP
[6] = 10 μM, 3 Hz, read-out: Prolongation (%) of impulse conduction time

Compound	activation at 10 µM [1, 3] [%]	activation at 10 µM [1, 4] [%]	activation at 10 µM [1, 5] [%]	activation at 10 µM [1, 6] [%]	APA (amplitude of the action potential) ([2]; 5 μM) [mV]	APD50 (time of 50% repolarization) ([2]; 5 μM) [ms]	APD90 (time of 90% repolarization) ([2]; 5 μM) [ms]	RP (resting potential) ([2]; 5 μM) [mV]	Recovery Ampl ([2]; 5 μM) [V/s]	Recovery Ampl/Plateau ([2]; 5 μM)	Recovery Plateau ([2]; 5 μM) [V/s]	Vmax (maximum rate of depolarization) ([2]; 5 μM) [V/s]	Trecovery (recovery time constant of Vmax) ([2]; 5 μM) [ms]	effect on duration of the action potential (in words) [2]	effect on Vmax (in words) [2]	also measured
Cc1cccc(C)c1OCC(C)NCCc1ccc(NS(C)(=O)=O)cc1.Cl (stereo not shown) [Example 22, N-[4-[2-[N-[2-(2,6-Dimethylphenoxy)-1-methylethyl]amino]-ethyl]phenyl]methanesulfonamide hydrochloride]	12.3	22.6	18.1	28.3	100	215	260	-80	136.3	0.58	232.8	159	337.8	simultaneous prolongation of duration of the action potential (APD)	mexiletine-like inhibition of Vmax	–
Cc1cccc(C)c1OCC(C)N.Cl (stereo not shown) [Mexiletine, 2-(2,6-dimethylphenoxy)-1-methylethylamine hydrochloride, reference compound]	–	–	–	–	–	–	–	–	–	–	–	–	–	–	–	activation at 10 µM ([1]; read-out: Prolongation (%) of ERP, 10 μM, 1 Hz): -1.9 ± 1.7%; activation at 10 µM ([1]; read-out: Prolongation (%) of ERP, 10 μM, 3 Hz): 8.9%; activation at 10 µM ([1]; read-out: Prolongation (%) of impulse conduction time, 10 μM, 1 Hz): 3.9%; activation at 10 µM ([1]; read-out: Prolongation (%) of impulse conduction time, 10 μM, 3 Hz): 18.8%; effect on impulse conduction (in words) [1]: exerted an effect mainly on impulse conduction; APA (amplitude of the action potential) ([2]; 10 μM): 115 mV; APD50 (time of 50% repolarization) ([2]; 10 μM): 244 ms; APD90 (time of 90% repolarization) ([2]; 10 μM): 270 ms; RP (resting potential) ([2]; 10 μM): -92 mV; Recovery Ampl ([2]; 10 μM): 84.0 V/s; Recovery Ampl/Plateau ([2]; 10 μM): 0.45; Recovery Plateau ([2]; 10 μM): 186.5 V/s; Vmax (maximum rate of depolarization) ([2]; 10 μM): 193 V/s; Trecovery (recovery time constant of Vmax) ([2]; 10 μM): 214.1 ms
Cc1cccc(C)c1OCCCN(C)CCc1ccc(NS(C)(=O)=O)cc1 [Example 23, N-[4-[2-[N-Methyl-N-[3-(2,6-dimethylphenoxy)propyl]amino]-ethyl]phenyl]methanesulfonamide hydrochloride]	10.8	25	14.9	25	–	–	–	–	–	–	–	–	–	–	–	–
Cc1cccc(C)c1OCC(C)N(C)CCc1ccc(N)cc1 (stereo not shown) [Example 9, N-[2-(2,6-Dimethylphenoxy)-1-methylethyl]-N-methyl-2-(4-aminophenyl)ethylamine]	–	–	–	–	–	–	–	–	–	–	–	–	–	simultaneous prolongation of duration of the action potential (APD)	mexiletine-like inhibition of Vmax	activation at 2 µM ([1]; 1 Hz, read-out: Prolongation (%) of ERP): 31.8%; activation at 2 µM ([1]; 1 Hz, read-out: Prolongation (%) of impulse conduction time): 38%; activation at 2 µM ([1]; 3 Hz, read-out: Prolongation (%) of ERP): 39.4%; activation at 2 µM ([1]; 3 Hz, read-out: Prolongation (%) of impulse conduction time): 51.3%; effect on effective refractory period (in words) [1]: simultaneous prolongation of the effective refractory period (ERP); effect on impulse conduction (in words) [1]: significantly prolonged the time of impulse conduction in a frequency-dependent manner; APA (amplitude of the action potential) ([2]; 1 μM): 110 mV; APD50 (time of 50% repolarization) ([2]; 1 μM): 285 ms; APD90 (time of 90% repolarization) ([2]; 1 μM): 342 ms; RP (resting potential) ([2]; 1 μM): -91 mV; Recovery Ampl ([2]; 1 μM): 132.4 V/s; Recovery Ampl/Plateau ([2]; 1 μM): 0.61; Recovery Plateau ([2]; 1 μM): 216.5 V/s; Vmax (maximum rate of depolarization) ([2]; 1 μM): 200 V/s; Trecovery (recovery time constant of Vmax) ([2]; 1 μM): 307.4 ms
CNC(=S)Nc1ccc(CCN(C)C(C)COc2c(C)cccc2C)cc1 (stereo not shown) [Example 27, 1-Methyl-3-[4-[2-[N-methyl-N-[2-(2,6-dimethylphenoxy)-1-methylethyl]amino]ethyl]phenyl]thiourea sesquihydrochloride hemihydrate]	–	–	–	–	88	210	250	-71	78	0.53	147.9	117	161.8	simultaneous prolongation of duration of the action potential (APD)	mexiletine-like inhibition of Vmax	–
Cc1ccc(C)c(OCC(C)N(C)CCc2ccc(NS(C)(=O)=O)cc2)c1 (stereo not shown) [Example 20, N-[4-[2-[N-Metbyl-N-[2-(2,5-dimethylphenoxy)-1-methylethyl]amino]ethyl]phenyl]methanesulfonamide hydrochloride]	8.4	20.3	12.6	24.5	–	–	–	–	–	–	–	–	–	–	–	–
Cc1ccccc1OCCN(C)CCc1ccc(NS(C)(=O)=O)cc1.Cl [Example 14, N-[4-[2-[N-Methyl-N-[2-(2-methylphenoxy)ethyl]amino]ethyl]-phenyl]methanesulfonamide hydrochloride]	–	–	–	–	114	214	257	-90	58.7	0.25	231.8	232	111.4	simultaneous prolongation of duration of the action potential (APD)	mexiletine-like inhibition of Vmax	–
CN(CCOc1ccc(NS(C)(=O)=O)cc1)CCc1ccc(NS(C)(=O)=O)cc1 [Dofetilide, N-[4-[2-[N-methyl-N-[2-(4-methanesulfonamidophenoxy)ethyl]-amino]ethyl]phenyl]methanesulfonamide, reference compound]	–	–	–	–	–	–	–	–	–	–	–	–	–	–	–	APA (amplitude of the action potential) ([2]; 1 μM): 96 mV; APD50 (time of 50% repolarization) ([2]; 1 μM): 218 ms; APD90 (time of 90% repolarization) ([2]; 1 μM): 252 ms; RP (resting potential) ([2]; 1 μM): -76 mV; Vmax (maximum rate of depolarization) ([2]; 1 μM): 212 V/s
Cc1cccc(C)c1OCC(C)N(C)CCc1ccc(NC(=O)c2ccccc2)cc1 (stereo not shown) [Example 25, N-[4-[2-[N-Methyl-N-[2-(2,6-dimethylphenoxy)-1-methylethyl]amino]ethyl]phenyl]benzamide hydrochloride]	11.7	18.8	17	18.8	–	–	–	–	–	–	–	–	–	–	–	–
Cc1cccc(C)c1OCCCCN(C)CCc1ccc(NS(C)(=O)=O)cc1.Cl [Example 24, N-[4-[2-[N-Methyl-N-[4-(2,6-dimethylphenoxy)butyl]amino]ethyl]phenyl]methanesulfonamide hydrochloride]	13.8	69	18.4	82.9	–	–	–	–	–	–	–	–	–	–	–	effect on effective refractory period (in words) [1]: simultaneous prolongation of the effective refractory period (ERP); effect on impulse conduction (in words) [1]: significantly prolonged the time of impulse conduction in a frequency-dependent manner
Cc1ccccc1OCC(C)N(C)CCc1ccc(NS(C)(=O)=O)cc1 (stereo not shown) [Example 18, N-[4-[2-[N-Methyl-N-[2-(2-methylphenoxy)-1-methylethyl]-amino]ethyl]phenyl]methanesulfonamide hydrochloride]	9.9	18.5	14	21.7	–	–	–	–	–	–	–	–	–	–	–	–
CC(=O)Nc1ccc(CCN(C)C(C)COc2c(C)cccc2C)cc1 (stereo not shown) [Example 26, N-[4-[2-[N-Methyl-N-[2-(2,6-dimethylphenoxy)-1-methylethyl]amino]ethyl]phenyl]acetamide sesquihydrochloride monohydrate]	–	–	–	–	105	200	250	-80	120.9	0.62	195.9	195	199	simultaneous prolongation of duration of the action potential (APD)	mexiletine-like inhibition of Vmax	–

— patent US6265445A, “Antiarrhythmic compounds” (priority 1997, dated 2001)
